Test [1] has as its target Recombinant human soluble BACE1 catalytic domain (Homo sapiens (Human), UniProt P56817). As to the kind of experiment: BACE1 HTRF FRET Assay. The class given is biochemical. As to conditions: Ki calculated from IC50 using the Cheng-Prusoff equation; QSY7-APPswe-Eu substrate, pH 5.0; read-out: BACE-1 Ki. The essentials: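 Purified BACE1 catalytic domain (3 nM as added) is preincubated with inhibitor for 30 min at 30 °C in 20 mM Na-acetate pH 5.0, 10% glycerol, 0.1% Brij-35, 7.5% DMSO. QSY7-APP^swe-Eu substrate (200 nM final) is then cleaved for 1.5 h at 30 °C and read as time-resolved 620 nm fluorescence. IC50s come from nonlinear regression, and Ki from Cheng-Prusoff using substrate Km 8 μM.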

The target of test [2] is purified human autoBACE-2 (Homo sapiens (Human), UniProt Q9Y5Z0). The test can be described thus: BACE-2 Assay (BACE-HTRF assay). As to conditions: Ki calculated from IC50 using the Cheng-Prusoff equation; QSY7-EISEVNLDAEFC-Eu-amide substrate, pH 5.0. The class given is biochemical. The procedure, abridged:
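Endpoint proteolysis of a QSY7/europium FRET peptide by purified human autoBACE-2, 5% DMSO final, read by time-resolved fluorescence at 620 nm after 320 nm excitation.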

Chain of purified human autoBACE-2 (Q9Y5Z0 63-473 limits assumed): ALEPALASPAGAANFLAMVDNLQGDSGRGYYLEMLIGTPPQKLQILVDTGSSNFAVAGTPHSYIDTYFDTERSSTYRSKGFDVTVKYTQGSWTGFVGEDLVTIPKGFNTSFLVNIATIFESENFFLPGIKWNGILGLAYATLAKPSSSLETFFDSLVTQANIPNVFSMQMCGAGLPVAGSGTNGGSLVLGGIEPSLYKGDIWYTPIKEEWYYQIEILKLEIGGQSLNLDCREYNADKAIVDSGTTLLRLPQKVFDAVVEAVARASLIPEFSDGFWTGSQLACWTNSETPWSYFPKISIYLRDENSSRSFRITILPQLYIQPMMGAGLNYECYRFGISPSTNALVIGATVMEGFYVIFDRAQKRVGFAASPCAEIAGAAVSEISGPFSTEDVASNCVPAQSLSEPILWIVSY
Chain of Recombinant human soluble BACE1 catalytic domain (P56817 75-416): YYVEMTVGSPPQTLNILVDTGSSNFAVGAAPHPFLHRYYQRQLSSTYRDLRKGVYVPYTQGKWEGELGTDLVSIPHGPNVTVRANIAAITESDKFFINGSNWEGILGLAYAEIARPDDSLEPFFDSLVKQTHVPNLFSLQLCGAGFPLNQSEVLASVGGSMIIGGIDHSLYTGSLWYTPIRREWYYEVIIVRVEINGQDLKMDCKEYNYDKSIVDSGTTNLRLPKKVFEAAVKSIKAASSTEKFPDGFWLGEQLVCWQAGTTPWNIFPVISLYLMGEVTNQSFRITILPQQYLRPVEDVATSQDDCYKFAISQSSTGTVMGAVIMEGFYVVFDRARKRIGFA

Turning to `C[C@H]1C[C@H]2C(=O)N(C)C(=N)N[C@@]2(c2cc(=O)n(CC3CC3)cc2F)CO1` [Example 94, (4aR,6S,8aS)-8a-(1-(cyclopropylmethyl)-5-fluoro-2-oxo-1,2-dihydropyridin-4-yl)-2-imino-3,6-dimethylhexahydro-1H-pyrano[3,4-d]pyrimidin-4(4aH)-one], the inhibitory constant (Ki) is 4180 nM in test [1] and 1590 nM in test [2].

With `C=CCCn1cc(F)c([C@]23CO[C@@H](C)C[C@H]2C(=O)N(C)C(=N)N3)cc1=O` [Example 95, (4aR,6S,8aS)-8a-(1-(but-3-en-1-yl)-5-fluoro-2-oxo-1,2-dihydropyridin-4-yl)-2-imino-3,6-dimethylhexahydro-1H-pyrano[3,4-d]pyrimidin-4(4aH)-one], the Ki in test [1] is 8400 nM; in test [2] it was 1590 nM.

With `C[C@H]1C[C@H]2C(=O)N(C)C(=N)N[C@@]2(c2cc(Oc3ncccc3F)ncc2F)CO1` [Example 96], the Ki is 145 nM in test [1] and 31.3 nM in test [2].

Consider “(4aR,6S,8aS)-8a-(5-((4-chloropyridin-3-yl)oxy)-2-fluorophenyl)-2-imino-3,6-dimethylhexahydro-1H-pyrano[3,4-d]pyrimidin-4(4aH)-one [Example 75]”, for which the Ki was 58.2 nM in test [1] and 23.3 nM in test [2].

As usually defined, the Ki is a measure of affinity in units of concentration, obtained from inhibition or displacement.

(Values after patent US10047098B2, “C5-C6-oxacyclic fused iminopyrimidinone compounds as bace inhibitors, compositions, and their use” (Merck Sharp & Dohme Corp., priority 2014, dated 2018).)
